How the values were obtained:
rabbit aortic rings = test: Relaxation of norepinephrine pre-constricted rabbit aortic rings ex vivo; settings: for Max Relaxation: Experiment 3, 100 μM; for Aortic Ring Effective Conc,: Table 1 summary
Procedure: Several compounds were investigated for their effect on nitric oxide (NO) production and vasorelaxation using serum-free human umbilical vein endothelial cell (HUVEC) culture system in vitro and rabbit aortic ring model ex vivo, respectively. NO production by endothelial cells and relaxation of pre-constricted aortic rings are two main markers for evaluating vascular effects of test compounds. Effect of different procyanidins on endothelium-dependent relaxation was tested in an ex vivo experiment performed as previously described by Karim et al., J. Nutrl Suppl., 130 (8S): […]-[…] (2000), the relevant portions of which are hereby incorporated herein by reference. The advantage of using this method is that it assesses functional vascular end points. […] In summary, rabbit aortic rings were obtained from male New Zealand White rabbits. Following isolation, the rings were mounted in oxygenated Kreb's buffer, and pre-constricted with norepinephrine (NE) (10^-6 M). […] A positive control acetylcholine (10^-9 to 10^-4 M) and a negative control L-NAME were included in the experiment. Use of L-NAME, which is a NO synthase (NOS) inhibitor, allows for differentiating between endothelium dependent and endothelium independent relaxation events. […] The relaxation response was measured as a function of the decrease in the tension (g) exerted by the aortic rings over time […]. Data obtained were expressed as a percent relaxation of the norepinephrine (NE) constricted rings. The same statistical approach as described above was used. Dose response curves were obtained by plotting the average percent relaxation (+/-SE) against the concentrations used.

[1] = tested on: human umbilical vein endothelial cell (HUVEC) NO production; test: HUVEC NO production (NOx in cell culture medium, chemiluminescence); assay type: cell-based; settings: for HUVEC Cells NOx, 2 hr / HUVEC Cells NOx, 24 hr / HUVEC Cells NOx, 5 d: Table 2 summary; for NO production, positive and negative controls: Experiment 1, acute, 2 hours
Procedure: Several compounds were investigated for their effect on nitric oxide (NO) production and vasorelaxation using serum-free human umbilical vein endothelial cell (HUVEC) culture system in vitro and rabbit aortic ring model ex vivo, respectively. NO production by endothelial cells and relaxation of pre-constricted aortic rings are two main markers for evaluating vascular effects of test compounds.
HUVECs obtained from a single donor were cultured in serum free, low protein (0.5 g/l), antibiotic-free cell culture medium supplemented with essential growth factors, nutrients and minerals. […] The cell culture medium was substituted with apo-transferrin, superoxide dismutase, and catalase to exclude secondary effects of test compounds involving their auto-oxidation mediated hydrogen peroxide formation.
NO production was evaluated by measuring the total amount of all major nitric oxide end products (NOx, including nitrate, nitrite, nitrosothiols) present in the cell culture medium. […] The amount of NO released from the culture medium was subsequently evaluated by measuring the chemiluminescence emitted during the stoichiometrical reaction between ozone and NO using a NO Analyzer (Sievers Instruments, Inc. Boulder, Colo.).
The data presented herein were obtained from three experiments and were expressed as the concentration of NO present (in μmol/l) (as NOx) in the cell culture medium+/−standard deviation (SD). The data were corrected for the NOx intrinsically present in the fully supplemented cell culture medium and normalized with respect to the volume of media from which the sample was drawn. Data were analyzed using Student's t-test with a 95% level of confidence. P values equal to or less than 0.05 were defined as statistically significant.
For the acute effect test, HUVECs were incubated with the test compounds for 2 hours at concentrations of 100 nM, 1 μM, and 10 μM at 37° C. and 5% CO2. […] (FIG. 1)
For the chronic effect test, HUVECs were incubated with 5 subsequent doses of test compounds, each for 24 hours. After each 24 hour treatment, culture medium was replaced.
For the acute effect test, HUVECs were incubated with a single dose of the test compounds for 24 hours at concentrations of 100 nM, 1 μM, and 10 μM at 37° C. and 5% CO2.

HUVEC = test: HUVEC-mediated MTT reduction (toxic effects); settings: for cell-mediated MTT reduction: 10 μM (20 μM for the Epicatechin gallates)
Procedure: Cell counts and total protein were used to assess intra-assay variation. Potential toxic effects of tested compounds were also monitored (MTT reduction was measured).

[2] = Experiment 1, chronic, 5 subsequent 24 hour doses
[3] = Experiment 2, chronic, 5 x 24 hours
[4] = Experiment 4, 10^−9M -10^4M (so in the source)

Compound: O=C(O[C@H]1[C@H](c2c(O)cc(O)c3c2O[C@H](c2ccc(O)c(O)c2)[C@@H](OC(=O)c2cc(O)c(O)c(O)c2)C3)c2c(O)cc(O)cc2O[C@@H]1c1ccc(O)c(O)c1)c1cc(O)c(O)c(O)c1 [C-(4α→8)-C digallate, (+)-Catechin-(4α,8)-(+)-Catechin Digallate]
- relaxation response, percent relaxation of NE constricted rings (rabbit aortic rings; Experiment 2, 10^−4 M): 71.7+/−11.6%
- Max Relaxation (rabbit aortic rings): 72%
- Aortic Ring Effective Conc, (rabbit aortic rings): 100 µM

Compound: Oc1cc(O)c2c(c1)O[C@H](c1ccc(O)c(O)c1)[C@@H](O)[C@@H]2c1c(O)cc(O)c2c1O[C@H](c1ccc(O)c(O)c1)[C@@H](O)C2 [C-(4α→8)-C, (+)-Catechin-(4α,8)-(+)-Catechin]
- relaxation response, percent relaxation of NE constricted rings (rabbit aortic rings; Experiment 1, 10^−4 M): 60.80+/−15.09%
- Max Relaxation (rabbit aortic rings): 61%
- Aortic Ring Effective Conc, (rabbit aortic rings): 100 µM
- NO production ([1]; Experiment 1, 24 h after single dose, 10 μM): increased NO production
- NO production [1, 2]: did not modulate NO production
- HUVEC Cells NOx, 2 hr [1]: no effect
- HUVEC Cells NOx, 24 hr [1]: 10 uM, sign. NOx incr.
- HUVEC Cells NOx, 5 d [1]: no effect

Compound: O=C(O[C@H]1[C@H](c2c(O)cc(O)c3c2O[C@H](c2ccc(O)c(O)c2)[C@H](OC(=O)c2cc(O)c(O)c(O)c2)C3)c2c(O)cc(O)cc2O[C@@H]1c1ccc(O)c(O)c1)c1cc(O)c(O)c(O)c1 [C-(4α→8)-EC digallate, (+)-Catechin-(4α,8)-(−)-Epicatechin Digallate]
- relaxation response, percent relaxation of NE constricted rings (rabbit aortic rings; Experiment 2, 10^−4 M): 40.7+/−9.2%
- Max Relaxation (rabbit aortic rings): 41%
- Aortic Ring Effective Conc, (rabbit aortic rings): 100 µM
- MTT reduction (HUVEC; Experiment 2, chronic, 5 x 24 hours, 1 μM or 2 μM for EGC): decline in MTT reduction
- cell-mediated MTT reduction (HUVEC; [3]): significant decline of cell-mediated MTT reduction
- HUVEC Cells NOx, 24 hr [1]: no effect
- HUVEC Cells NOx, 5 d [1]: No significant NOx increase;

Compound: Oc1cc(O)c2c(c1)O[C@H](c1ccc(O)c(O)c1)[C@@H](O)[C@@H]2c1c(O)cc(O)c2c1O[C@H](c1ccc(O)c(O)c1)[C@H](O)C2 [C-(4α→8)-EC]
- relaxation response (rabbit aortic rings; Experiment 2, 10^−9 to 10^−4 M): No significant relaxation response

Compound: O=C(O[C@H]1[C@@H](c2c(O)cc(O)c3c2O[C@H](c2ccc(O)c(O)c2)[C@@H](OC(=O)c2cc(O)c(O)c(O)c2)C3)c2c(O)cc(O)cc2O[C@@H]1c1ccc(O)c(O)c1)c1cc(O)c(O)c(O)c1 [C-(4β→8)-C digallate, (+)-Catechin-(4β,8)-(+)-Catechin Digallate]
- relaxation response, percent relaxation of NE constricted rings (rabbit aortic rings; Experiment 2, 10^−4 M): 72.6+/−9.8%
- Max Relaxation (rabbit aortic rings): 73%
- Aortic Ring Effective Conc, (rabbit aortic rings): 100 µM

Compound: Oc1cc(O)c2c(c1)O[C@H](c1ccc(O)c(O)c1)[C@@H](O)[C@H]2c1c(O)cc(O)c2c1O[C@H](c1ccc(O)c(O)c1)[C@@H](O)C2 [C-(4β→8)-C, (+)-Catechin-(4β,8)-(+)-Catechin]
- relaxation response (rabbit aortic rings; Experiment 1, 10^−9 to 10^−4 M): No significant relaxation response
- relaxation response (rabbit aortic rings; Experiment 2, 10^−9 to 10^−4 M): No significant relaxation response
- HUVEC NO production ([1]; Experiment 2, chronic, 5 subsequent 24 hour doses): increase in HUVEC NO production
- HUVEC Cells NOx, 2 hr [1]: no effect
- HUVEC Cells NOx, 24 hr [1]: no effect
- HUVEC Cells NOx, 5 d [1]: 10 uM, significant NOx increase

Compound: Oc1cc(O)c2c(c1)O[C@H](c1ccc(O)c(O)c1)[C@@H](O)[C@H]2c1c(O)cc(O)c2c1O[C@H](c1ccc(O)c(O)c1)[C@H](O)C2 [C-(4β→8)-EC]
- relaxation response (rabbit aortic rings; Experiment 2, 10^−9 to 10^−4 M): No significant relaxation response
- cell-mediated MTT reduction (HUVEC; [3]): significant decline of cell-mediated MTT reduction

Compound: Cc1c(O)c(C2c3c(O)cc(O)cc3OC(c3ccc(O)c(O)c3)C2O)c(O)c2c1OC(c1ccc(O)c(O)c1)C(O)C2 (stereo not drawn) [EC(4β→6)EC-8methyl]
- relaxation response (rabbit aortic rings; Experiment 2, 10^−9 to 10^−4 M): No significant relaxation response

Compound: O=C(O[C@@H]1[C@@H](c2c(O)cc(O)c3c2O[C@H](c2ccc(O)c(O)c2)[C@@H](OC(=O)c2cc(O)c(O)c(O)c2)C3)c2c(O)cc(O)cc2O[C@@H]1c1ccc(O)c(O)c1)c1cc(O)c(O)c(O)c1 [EC-(4β→8)-C digallate, (−)-Epicatechin-(4β,8)-(+)-Catechin Digallate]
- relaxation response, percent relaxation of NE constricted rings (rabbit aortic rings; Experiment 2, 10^−4 M): 56.7+/−15.4%
- Max Relaxation (rabbit aortic rings): 57%
- Aortic Ring Effective Conc, (rabbit aortic rings): 100 µM

Compound: Oc1cc(O)c2c(c1)O[C@H](c1ccc(O)c(O)c1)[C@H](O)[C@H]2c1c(O)cc(O)c2c1O[C@H](c1ccc(O)c(O)c1)[C@H](O)C2 [EC-(4β→8)-EC]
- relaxation response (rabbit aortic rings; Experiment 1, 10^−9 to 10^−4 M): No significant relaxation response
- MTT reduction (HUVEC; [2]): decline in MTT reduction

Compound: O=C(O[C@@H]1Cc2c(O)cc(O)cc2O[C@@H]1c1ccc(O)c(O)c1)c1cc(O)c(O)c(O)c1 [ECG, Epicatechingallate, reference compound]
- relaxation response (rabbit aortic rings; [4]): No significant relaxation response
- cell-mediated MTT reduction (HUVEC; [3]): significant decline of cell-mediated MTT reduction

Compound: Oc1cc(O)c2c(c1)O[C@H](c1cc(O)c(O)c(O)c1)[C@H](O)C2 [EGC, Epigallocatechin, reference compound]
- relaxation response (rabbit aortic rings; [4]): No significant relaxation response

Compound: O=C(O[C@@H]1Cc2c(O)cc(O)cc2O[C@@H]1c1cc(O)c(O)c(O)c1)c1cc(O)c(O)c(O)c1 [EGCG, Epigallocatechingallate, reference compound]
- relaxation response (rabbit aortic rings; [4]): No significant relaxation response
- modulation of NO production ([1]; Experiment 2, single dose, 24 hours, 10 μM): statistically significant ability to modulate NO production
- HUVEC Cells NOx, 24 hr [1]: 20 uM, sign. NOx inc.
- HUVEC Cells NOx, 5 d [1]: No significant NOx increase;

Compound: O=C(O)c1cc(O)c(O)c(O)c1 [Gallic Acid, reference compound]
- relaxation response (rabbit aortic rings; [4]): No significant relaxation response

Compound: COC(=O)[C@@H](N)CCCNC(=N)N[N+](=O)[O-] [L-NAME, reference compound]
- relaxation responses after pre-treatment with NOS inhibitor (rabbit aortic rings; vessels pre-treated with negative control): relaxation responses were attenuated

Compound: CNC(=N)NCCC[C@H](N)C(=O)O [L-NNMA, reference compound]
- NO production, positive and negative controls ([1]; compared to vehicle): completely attenuated the acetylcholine and histamine-NO production
- NOx production, positive and negative controls ([1]; Experiment 2, single dose, 24 hours, compared to vehicle): completely attenuated the acetylcholine-induced NO production

Compound: CC(=O)OCC[N+](C)(C)C [acetylcholine, reference compound]
- concentration producing a relaxation response (rabbit aortic rings; positive control): 10^−7 M
- concentration reaching maximal relaxation (rabbit aortic rings; positive control): 10^−6 M

Compound: NCCc1c[nH]cn1 [histamine, reference compound]
- NO production, positive and negative controls ([1]; compared to vehicle): statistically significant increase in NO production

Compound: (−)-Epicatechin-(4β,8)-(OMethyl)4-(−)-Epicatechin Digallate [EC-(4β→8)(OMethyl)4-EC digallate]
- relaxation response (rabbit aortic rings; Experiment 1, 10^−9 to 10^−4 M): No significant relaxation response
- HUVEC Cells NOx, 2 hr [1]: no effect
- HUVEC Cells NOx, 24 hr [1]: no effect
- HUVEC Cells NOx, 5 d [1]: 10 uM, significant NOx increase

— patent publication US20050277600A1, “Compositions and methods of use of dimer digallates” (Mars, Incroporated, priority 2004, published 2005)
